According to patent US20240158446A1, “CYCLIC COMPOUND HAVING SELECTIVE INHIBITORY ACTION ON KRAS OVER HRAS AND NRAS” (CHUGAI SEIYAKU KABUSHIKI KAISHA, priority 2021, published 2024):
pKd: −log10 of the molar value.

Assays:
[1] = target: GDP-bound HRAS wild-type protein (Homo sapiens, UniProt P01112); assay: Binding to HRAS by surface plasmon resonance (SPR), Single Cycle Kinetics; settings: SPR, GDP-bound HRAS wild-type protein vs GDP-bound KRAS wild-type protein
[2] = target: GDP-bound NRAS wild-type protein (Homo sapiens, UniProt P01111); assay: Binding to NRAS by surface plasmon resonance (SPR), Single Cycle Kinetics; settings: SPR, GDP-bound NRAS wild-type protein vs GDP-bound KRAS wild-type protein
[3] = target: GDP-bound KRAS wild-type protein (Homo sapiens, UniProt P01116); assay: Binding to KRAS by surface plasmon resonance (SPR), Single Cycle Kinetics; settings: SPR, Single Cycle Kinetics, GDP-bound KRAS wild-type protein; read-out: KRAS KD
Sequence of GDP-bound KRAS wild-type protein (P01116 whole entry): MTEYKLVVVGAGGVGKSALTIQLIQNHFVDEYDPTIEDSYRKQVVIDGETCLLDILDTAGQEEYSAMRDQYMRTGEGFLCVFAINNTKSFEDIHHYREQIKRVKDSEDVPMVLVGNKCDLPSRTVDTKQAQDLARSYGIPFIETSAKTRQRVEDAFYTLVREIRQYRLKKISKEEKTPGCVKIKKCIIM

Sequence of GDP-bound NRAS wild-type protein (P01111 whole entry): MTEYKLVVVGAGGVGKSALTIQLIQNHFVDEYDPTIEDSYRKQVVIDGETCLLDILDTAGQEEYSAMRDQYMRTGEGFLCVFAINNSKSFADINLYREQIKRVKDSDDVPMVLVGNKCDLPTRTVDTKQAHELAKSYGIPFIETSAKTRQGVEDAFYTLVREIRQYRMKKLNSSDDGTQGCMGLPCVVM
Sequence of GDP-bound HRAS wild-type protein (P01112 whole entry): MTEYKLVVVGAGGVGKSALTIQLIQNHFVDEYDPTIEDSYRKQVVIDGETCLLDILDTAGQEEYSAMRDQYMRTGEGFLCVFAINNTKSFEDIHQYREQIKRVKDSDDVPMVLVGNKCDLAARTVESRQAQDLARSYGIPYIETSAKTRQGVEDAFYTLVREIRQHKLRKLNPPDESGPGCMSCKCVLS

SMILES | HRAS/KRAS (ratio of KD value for HRAS to KD value for KRAS) [1] | NRAS/KRAS (ratio of KD value for NRAS to KD value for KRAS) [2] | pKd [3]
CCO[C@@H]1C[C@H]2C(=O)NC3(CC(C)(C)C3)C(=O)N(C)[C@@H](C3CCCC3)C(=O)N(C)[C@H](C(=O)N(C)CC)CC(=O)N(C)[C@H]3CCCCCCc4ccc(cc4)C[C@@H](C(=O)N(C)CC(=O)N[C@@H](CCc4ccc(C(F)(F)F)c(OC)c4)C(=O)N2C1)N1CC/C=C\C[C@@H](C1=O)N(C)C(=O)CN(C)C(=O)[C@H]([C@@H](C)CC)NC3=O [PP2260, (1S,7S,11R,13S,19S,22S,26S,29S,35S,37Z)-19-cyclopentyl-11-ethoxy-N-ethyl-7-[2-[3-methoxy-4-(trifluoromethyl)phenyl]ethyl]-N,3,3′,3′,18,21,25,31,34-nonamethyl-29-[(1S)-1-methylpropyl]-2,5,8,14,17,20,24,27,30,33,55-undecaoxo-spiro[3,6,9,15,18,21,25,28,31,34,41-undecazapentacyclo[24.15.11.2^43,46.1^35,41.0^9,13]pentapentaconta-37,43(54),44,46(53)-tetraene-16,1′-cyclobutane]-22-carboxamide] | A (a compound having 10 or more and less than 20 is denoted as A) | A (a compound having 10 or more and less than 20 is denoted as A) | 9.92
CCO[C@@H]1C[C@H]2C(=O)NC3(CCC3)C(=O)N(C)[C@@H](C3CCCC3)C(=O)N(C)[C@H](C(=O)N(C)C)CC(=O)N(C)[C@H]3CCCCCc4ccc(cc4)C[C@@H](C(=O)N(C)CC(=O)N[C@@H](CCc4cc(F)c(C(F)(F)F)c(F)c4)C(=O)N2C1)N1CC/C=C\C[C@@H](C1=O)N(C)C(=O)CN(C)C(=O)[C@H]([C@@H](C)CC)NC3=O [PP2261] | A (a compound having 10 or more and less than 20 is denoted as A) | A (a compound having 10 or more and less than 20 is denoted as A) | 9.74
CCO[C@@H]1C[C@H]2C(=O)NC3(CCC3)C(=O)N(C)[C@@H](C3CCCC3)C(=O)N(C)[C@H](C(=O)N(C)C)CC(=O)N(C)[C@H]3CCCCCc4ccc(cc4)C[C@@H](C(=O)N(C)CC(=O)N[C@@H](CCc4ccc(C(F)(F)F)c(OC)c4)C(=O)N2C1)N1CC/C=C\C[C@@H](C1=O)N(C)C(=O)CN(C)C(=O)[C@H]([C@@H](C)CC)NC3=O [PP2262] | B (a compound having 3 or more and less than 10 is denoted as B) | A (a compound having 10 or more and less than 20 is denoted as A) | 9.62
CCO[C@@H]1C[C@H]2C(=O)NC3(CCC3)C(=O)N(C)[C@@H](C3CCCC3)C(=O)N(C)[C@H](C(=O)N(C)C)CC(=O)N(C)[C@H]3CCCCCCc4ccc(cc4)C[C@@H](C(=O)N(C)CC(=O)N[C@@H](CCc4ccc(C(F)(F)F)c(OC)c4)C(=O)N2C1)N1CC/C=C\C[C@@H](C1=O)N(C)C(=O)CN(C)C(=O)[C@H]([C@@H](C)CC)NC3=O [PP2264] | A (a compound having 10 or more and less than 20 is denoted as A) | AA (a compound having 20 or more is denoted as AA) | 9.96
CC[C@H](C)[C@@H]1NC(=O)[C@H](CC(C)C)N(C)C(=O)C[C@@H](C(=O)N(C)C)N(C)C(=O)[C@H](C2CCCC2)N(C)C(=O)C2(CCCC2)NC(=O)[C@@H]2C[C@H](C)CN2C(=O)[C@H](CCc2cc(F)c(C(F)(F)F)c(F)c2)NC(=O)CN(C)C(=O)[C@H](Cc2ccc(C(F)(F)F)cc2)N2CC/C=C\C[C@@H](C2=O)N(C)C(=O)CN(C)C1=O [PP2268] | A (a compound having 10 or more and less than 20 is denoted as A) | A (a compound having 10 or more and less than 20 is denoted as A) | 9.92
CCO[C@@H]1C[C@H]2C(=O)NC3(CCCC3)C(=O)N(C)[C@@H](C3CCCC3)C(=O)N(C)[C@H](C(=O)N(C)C)CC(=O)N(C)[C@@H](CC(C)C)C(=O)N[C@@H]([C@@H](C)CC)C(=O)N(C)CC(=O)N(C)[C@H]3C/C=C\CCN(C3=O)[C@@H](Cc3ccc(C(F)(F)F)cc3)C(=O)N(C)CC(=O)N[C@@H](CCc3cc(F)c(Cl)c(F)c3)C(=O)N2C1 [PP2269] | A (a compound having 10 or more and less than 20 is denoted as A) | A (a compound having 10 or more and less than 20 is denoted as A) | 9.42
CCC[C@H]1C(=O)N[C@@H]([C@@H](C)CC)C(=O)N(C)CC(=O)N(C)[C@H]2C/C=C\CCN(C2=O)[C@@H](Cc2ccc(C(F)(F)F)cc2)C(=O)N(C)CC(=O)N[C@@H](CCc2ccc(C(F)(F)F)c(Cl)c2)C(=O)N2C[C@@H](C)C[C@H]2C(=O)NC2(CC(C)(C)C2)C(=O)N(C)[C@@H](C2CCCC2)C(=O)N(C)[C@H](C(=O)N(C)C)CC(=O)N1C [PP2270] | B (a compound having 3 or more and less than 10 is denoted as B) | B (a compound having 3 or more and less than 10 is denoted as B) | 9.62
CC[C@@H]1C[C@H]2C(=O)NC3(CCCC3)C(=O)N(C)[C@@H](C3CCCC3)C(=O)N(C)[C@H](C(=O)N(C)CC)CC(=O)N(C)[C@@H](C)C(=O)N[C@@H]([C@@H](C)CC)C(=O)N(C)CC(=O)N(C)[C@H]3C/C=C\CCN(C3=O)[C@@H](Cc3ccc(C(F)(F)F)cc3)C(=O)N(C)CC(=O)N[C@@H](CCc3cc(F)c(C(F)(F)F)c(F)c3)C(=O)N2C1 [PP2271] | A (a compound having 10 or more and less than 20 is denoted as A) | A (a compound having 10 or more and less than 20 is denoted as A) | 9.54
CCC[C@@H]1C[C@H]2C(=O)NC3(CCCC3)C(=O)N(C)[C@@H](C3CCCC3)C(=O)N(C)[C@H](C(=O)N(C)CC)CC(=O)N(C)[C@@H](C)C(=O)N[C@@H]([C@@H](C)CC)C(=O)N(C)CC(=O)N(C)[C@H]3C/C=C\CCN(C3=O)[C@@H](Cc3ccc(C(F)(F)F)cc3)C(=O)N(C)CC(=O)N[C@@H](CCc3cc(F)c(C(F)(F)F)c(F)c3)C(=O)N2C1 [PP2272] | A (a compound having 10 or more and less than 20 is denoted as A) | AA (a compound having 20 or more is denoted as AA) | 9.31
CCC[C@@H]1C[C@H]2C(=O)NC3(CC(C)(C)C3)C(=O)N(C)[C@@H](C3CCCC3)C(=O)N(C)[C@H](C(=O)N(C)C)CC(=O)N(C)[C@@H](COC)C(=O)N[C@@H]([C@@H](C)CC)C(=O)N(C)CC(=O)N(C)[C@H]3C/C=C\CCN(C3=O)[C@@H](Cc3ccc(C(F)(F)F)cc3)C(=O)N(C)CC(=O)N[C@@H](CCc3ccc(C(F)(F)F)c(Cl)c3)C(=O)N2C1 [PP2275] | A (a compound having 10 or more and less than 20 is denoted as A) | A (a compound having 10 or more and less than 20 is denoted as A) | 9.44
CCC[C@H]1C(=O)N[C@@H]([C@@H](C)CC)C(=O)N(C)CC(=O)N(C)[C@H]2C/C=C\CCN(C2=O)[C@@H](Cc2ccc(C(F)(F)F)cc2)C(=O)N(C)CC(=O)N[C@@H](CCc2ccc(C(F)(F)F)c(OC)c2)C(=O)N2C[C@H](OCC)C[C@H]2C(=O)N(C)C2(CCC2)C(=O)N(C)[C@@H](C2CCCC2)C(=O)N(C)[C@H](C(=O)N(C)C)CC(=O)N1C [PP2312] | B (a compound having 3 or more and less than 10 is denoted as B) | A (a compound having 10 or more and less than 20 is denoted as A) | 10.52
CCC[C@H]1C(=O)N[C@@H]([C@@H](C)CC)C(=O)N(C2CC2)CC(=O)N(C)[C@H]2C/C=C\CCN(C2=O)[C@@H](Cc2ccc(C(F)(F)F)cc2)C(=O)N(C)CC(=O)N[C@@H](CCc2ccc(C(F)(F)F)c(OC)c2)C(=O)N2C[C@H](OCC)C[C@H]2C(=O)N(C)C2(CCC2)C(=O)N(C)[C@@H](C(CC)CC)C(=O)N(C)[C@H](C(=O)N(C)C)CC(=O)N1C [PP2313] | A (a compound having 10 or more and less than 20 is denoted as A) | AA (a compound having 20 or more is denoted as AA) | 9.31
CCC[C@H]1C(=O)N[C@@H]([C@@H](C)CC)C(=O)N(C2CC2)CC(=O)N(C)[C@H]2C/C=C\CCN(C2=O)[C@@H](Cc2ccc(C(F)(F)F)cc2)C(=O)N(C)CC(=O)N[C@@H](CCc2ccc(C(F)(F)F)c(OC)c2)C(=O)N2C[C@H](OCC)C[C@H]2C(=O)N(C)C2(CCC2)C(=O)N(C)[C@@H](C2CCCC2)C(=O)N(C)[C@H](C(=O)N(C)C)CC(=O)N1C [PP2316, (2S,8S,12R,14S,20S,23S,27S,30S,36S,38Z)-20-cyclopentyl-32-cyclopropyl-12-ethoxy-8-[2-[3-methoxy-4-(trifluoromethyl)phenyl]ethyl]-N,N,4,16,19,22,26,35-octamethyl-30-[(1S)-1-methylpropyl]-3,6,9,15,18,21,25,28,31,34,42-undecaoxo-27-propyl-2-[[4-(trifluoromethyl)phenyl]methyl]spiro[1,4,7,10,16,19,22,26,29,32,35-undecazatricyclo[34.5.1.0^10,14]dotetracont-38-ene-17,1′-cyclobutane]-23-carboxamide] | A (a compound having 10 or more and less than 20 is denoted as A) | A (a compound having 10 or more and less than 20 is denoted as A) | 9.92
CCC[C@H]1C(=O)N[C@@H]([C@@H](C)CC)C(=O)N2CCC[C@H]2C(=O)N(C)[C@H]2C/C=C\CCN(C2=O)[C@@H](Cc2ccc(C(F)(F)F)cc2)C(=O)N(C)CC(=O)N[C@@H](CCc2ccc(C(F)(F)F)c(OC)c2)C(=O)N2C[C@H](OCC)C[C@H]2C(=O)N(C)C2(CCC2)C(=O)N(C)[C@@H](C(CC)CC)C(=O)N(C)[C@H](C(=O)N(C)C)CC(=O)N1C [PP2317] | A (a compound having 10 or more and less than 20 is denoted as A) | A (a compound having 10 or more and less than 20 is denoted as A) | 9.40
